Experimental data from patent US20240279230A1, “CRYSTALLINE FORMS OF A HER2 INHIBITOR” (Boehringer Ingelheim International GmbH, priority 2022, published 2024).
Entries after “also recorded” stand apart in the source; their conditions may differ.

What was measured:
Format in all cases: physicochemical
[1] = Dynamic Vapor Sorption (DVS) sorption isotherms, hygroscopic behaviour; settings: for Hygroscopicity: DVS classification; for Δm (0-80%), moisture absorbed at 80% RH / Δm (0-90%), maximum water uptake: DVS, 25.0 ±1.0° C.; for Δm (0-90%), maximum water uptake: up to 90% RH; for Hysteresis: between sorption and desorption curves
Protocol: The methodology for this can be as follows. The mass of the solids is monitored as the relative humidity (RH) was deliberately changed. The RH is cycled twice from 0% to 90% to 0% in 10% steps. The temperature during measurement is kept constantly at (25.0 ±1.0° C.) Each step is held until mass stability was achieved. A camera inside the instrument captured an image at the conclusion of each stage, allowing for the observation of any visual changes in the solid form during the analysis.

[2] = Polymorphic stability of form III and form IV under stress storage, PXRD; settings: 21 days;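 note: open storage at 90 °C with 3% RH or 78% RH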
Protocol: A Bruker D2 Phaser X-Ray Diffractometer (XRD, EQ-SSRD-XRD-01) can be used for characterizing the samples. Raw results are evaluated using DIFFRAC.EVA (Bruker, V5.0) software. The Kα2 contribution was stripped, and a peak search was performed using peak search parameters (width 0.302 and threshold 1.0).
A test sample (approximately 0.3 g) is representatively subsampled into an agate-type mortar and pestle. Sample is ground for approximately one minute to achieve a fine homogenous powder. Sample is then transferred into a stainless-steel sample holder fitted with a zero-diffraction plate (ZDP). The sample holder is then levelled off with a glass slide to create a flat sample surface level with the sample holder.

[3] = Thermogravimetric Analysis (TGA); settings: 20° C./min
Protocol: The methodology for this can be as follows. Solid compounds (˜5 mg) are placed in an aluminium pan and sealed. The instrument used for the analysis is a TA Instruments TGA 550. The same sample lots from DSC testing are used for TGA testing. Processing is completed using TRIOS software.

[4] = Chemical stability of solid state forms under temperature/humidity stress, related substances by HPLC at 252 nm; parameters: Impurity I / Impurity A / Impurity B / Impurity C / Impurity D / Impurity E / Impurity F / Impurity G / Impurity H: unit not given here
Source text: To do so, control samples are stored refrigerated in the presence of desiccant for the duration of the study and measured simultaneously with stressed samples by HPLC at a wavelength of 252 nm.

[5] = Control 1, stored refrigerated with desiccant
[6] = Control 2, stored refrigerated with desiccant
[7] = Control 3, stored refrigerated with desiccant

## C=CC(=O)NC1CCN(c2ncc3ncnc(Nc4ccc(Oc5ccc6c(c5)ncn6C)c(C)c4)c3n2)CC1 [Form III, N-{1-[8-({3-methyl-4-[(1-methyl-1H-1,3-benzodiazol-5-yl)oxy]phenyl}amino)-[1,3]diazino[5,4-d]pyrimidin-2-yl]piperidin-4-yl}prop-2-enamide]
[1]; DVS camera images
  Change in visual appearance during the humidity cycles: No change in the visual appearance
[1]
  Hygroscopicity: slightly hygroscopic
  Δm (0-80%), moisture absorbed at 80% RH: 1.2 wt %
  Δm (0-90%), maximum water uptake: 1.7 wt %
  Hysteresis: no
[1]; listed as form III
  Hygroscopicity: slightly hygroscopic
  Δm (0-80%), moisture absorbed at 80% RH: 1.2 wt %
  Δm (0-90%), maximum water uptake: 1.7 wt %
  Hysteresis: lack of hysteresis
[1]; RH cycled twice 0% to 90% to 0%
  Phase change during DVS experiment: no indication of irreversible phase conversion or hydrate formation; also recorded: no irreversible phase changes
[2]; open storage 90° C./3% RH
  Polymorphic stability by PXRD: stable and conformed to form III reference standard
[2]; open storage 90° C./3% RH, listed as form III
  Polymorphic stability by PXRD: neither form underwent phase changes
[2]; open storage 90° C./78% RH
  Polymorphic stability by PXRD: stable and conformed to form III reference standard
[2]; open storage 90° C./78% RH, listed as form III
  Polymorphic stability by PXRD: neither form underwent phase changes
[3]; Decomposition
  TGA change in mass: 60.862%
  TGA onset: 420.47 °C
[3]; Small mass loss event
  TGA change in mass: 1.129%
  TGA end: 240.02 °C
  TGA onset: 231.13 °C
[3]; Small mass loss event, listed as form III
  TGA change in mass: around 1%
[4]; 60-90° C., 3-79% RH, up to 21 days
  Color change after stressing: No color changes
[4]; 60° C./75% RH, 21 days
  Impurity A: 0.067
  Impurity B: 0.012
  Impurity C: 0.023
  Impurity D: 0.134
  Impurity E: 0.057
  Impurity F: 0
  Impurity G: 0.019
  Impurity H: 0.140
  Impurity I: 0.014
[4]; 70° C./62% RH, 21 days
  Impurity A: 0.064
  Impurity B: 0.012
  Impurity C: 0.024
  Impurity D: 0.119
  Impurity E: 0.059
  Impurity F: 0.006
  Impurity G: 0.019
  Impurity H: 0.139
  Impurity I: 0.015
[4]; 75° C./41% RH, 21 days
  Impurity A: 0.066
  Impurity B: 0.011
  Impurity C: 0.025
  Impurity D: 0.118
  Impurity E: 0.062
  Impurity F: 0.009
  Impurity G: 0.019
  Impurity H: 0.136
  Impurity I: 0.010
[4]; 75° C./79% RH, 17 days
  Impurity A: 0.066
  Impurity B: 0.012
  Impurity C: 0.031
  Impurity D: 0.106
  Impurity E: 0.074
  Impurity F: 0
  Impurity G: 0.005
  Impurity H: 0.135
  Impurity I: 0.015
[4]; 80° C./11% RH, 21 days
  Impurity A: 0.066
  Impurity B: 0.011
  Impurity C: 0.025
  Impurity D: 0.123
  Impurity E: 0.054
  Impurity F: 0.007
  Impurity G: 0.024
  Impurity H: 0.141
  Impurity I: 0.015
[4]; 80° C./61% RH, 17 days
  Impurity A: 0.052
  Impurity B: 0.013
  Impurity C: 0.024
  Impurity D: 0.096
  Impurity E: 0.060
  Impurity F: 0.009
  Impurity G: 0.020
  Impurity H: 0.137
  Impurity I: 0.015
[4]; 90° C./3% RH, 21 days
  Impurity A: 0.064
  Impurity B: 0.012
  Impurity C: 0.033
  Impurity D: 0.087
  Impurity E: 0.073
  Impurity F: 0
  Impurity G: 0.007
  Impurity H: 0.140
  Impurity I: 0.016
[4]; 90° C./41% RH, 10 days
  Impurity A: 0.066
  Impurity B: 0.013
  Impurity C: 0.025
  Impurity D: 0.109
  Impurity E: 0.060
  Impurity F: 0
  Impurity G: 0.022
  Impurity H: 0.138
  Impurity I: 0.013
[4]; 90° C./78% RH, 21 days
  Impurity A: 0.065
  Impurity B: 0.011
  Impurity C: 0.023
  Impurity D: 0.112
  Impurity E: 0.057
  Impurity F: 0.006
  Impurity G: 0.021
  Impurity H: 0.133
  Impurity I: 0.014
[4]; [5]
  Impurity A: 0.059
  Impurity B: 0.012
  Impurity C: 0.026
  Impurity D: 0.127
  Impurity E: 0.049
  Impurity F: 0.008
  Impurity G: 0.016
  Impurity H: 0.139
  Impurity I: 0.014
[4]; [6]
  Impurity A: 0.051
  Impurity B: 0.010
  Impurity C: 0.023
  Impurity D: 0.097
  Impurity E: 0.057
  Impurity F: 0.006
  Impurity G: 0.019
  Impurity H: 0.136
  Impurity I: 0.016
[4]; [7]
  Impurity A: 0.069
  Impurity B: 0.010
  Impurity C: 0.024
  Impurity D: 0.143
  Impurity E: 0.051
  Impurity F: 0.007
  Impurity G: 0.019
  Impurity H: 0.139
  Impurity I: 0.016
[4]; accelerated stress conditions, up to 21 days at 90° C./78% RH
  Increase in related substances: no significant increase in any related substance
[4]; up to 21 days at 90° C./78% RH
  Chemical stability in the solid state: chemically very stable
